Results taken from patent publication US12703885B2, “Method for predicting the response to CDK4/6 inhibitor therapy in cancer patients” (GBG FORSCHUNGS GMBH, priority 2021, dated 2026).

Test system: HR+, HER2− eBC at high risk of recurrence
Assay: PENELOPE-B randomized, double-blind, placebo-controlled Phase 3 study; Cox regression for endpoint iDFS
Assay type: in vivo, human
Text: The data underlying the present invention were obtained in the context of the PENELOPE^B study (NCT01864746). PENELOPE^B is a randomized, double-blind, placebo-controlled Phase 3 study comparing one year of palbociclib plus at least five years of standard adjuvant endocrine therapy to placebo plus at least five years of standard adjuvant endocrine therapy in 1,250 women with HR+, HER2− eBC at high risk of recurrence who have residual invasive disease after completing neoadjuvant chemotherapy. Patients in the trial scored 3 or higher (or 2 if there were lymph node metastases at the time of surgery) on the clinical-pathologic stage—estrogen/grade (CPS-EG). The CPS-EG is a validated risk assessment tool combining: clinical stage before neoadjuvant treatment, pathological stage after neoadjuvant treatment, grading and estrogen-receptor status. More than 190 clinical sites in 12 countries around the globe participated in PENELOPE-B. The study opened in November 2013 and closed recruitment on Dec. 31, 2017. RNA was extracted from post-surgical residual tumor tissue of patients from the Penelope^B study (GBG 78) and quantified using the HTG EdgeSeq Oncology Biomarker Panel (HTG Molecular Diagnostics Inc.) resulting in a so-called count value for each of the 2559 genes in the assay. Quality control measures were performed as described by the manufacturer. For 906 patients HTG measurements were successfully performed and passed said quality controls. […] Each regression model was calculated based on 906 patients from the Penelope^B study. […] The 20 genes with smallest p-values for the interaction were selected. • 2) For each gene from step 1) the technical eligibility for measurement was evaluated. […] In the cohort of 782 patients the gene expression value was adjusted to the lower limit for between 0 and 16 patients, and to the upper limit for between 0 and 8 patients. • 4) The correlation between genes was analyzed by hierarchical clustering and analysis of the Pearson correlation coefficient matrix based on graphical methods. […]

## CC(=O)c1c(C)c2cnc(Nc3ccc(N4CCNCC4)cn3)nc2n(C2CCCC2)c1=O [palbociclib]
Overall population, n=906, plus standard adjuvant endocrine therapy, no significant difference between arms
  HR for iDFS, palbociclib vs. placebo (95% CI): 0.89 (0.69-1.16)
Subgroup score3dich high (above median of average of PIAS2, MAP2K6, DSG3, ABCC12, IFT52 expression)
  HR (95% CI), arm (palbociclib vs placebo), iDFS: 0.54 (0.37-0.79)
Subgroup score3dich low (below median of average of PIAS2, MAP2K6, DSG3, ABCC12, IFT52 expression)
  HR (95% CI), arm (palbociclib vs placebo), iDFS: 1.45 (1.00-2.09)
